# Measured values taken from US7462646B2, “Osteoclastogenesis inhibitors and uses thereof” (Research Development Foundation, priority 2003, dated 2008).
# Experiments:
# [1] = system: RAW264.7 cells incubated with MDA-MB-468 cells; experiment: MDA-MB-468 breast adenocarcinoma cells-induced osteoclastogenesis (TRAP assay); assay type: cell-based, mouse; details: five days
# Experimental: (§1) RAW264.7 cells (1×10^4 cells) were incubated either with MDA-MB-468 cells (1×10^3 cells) or with MCF-7 cells (1×10^3 cells) in the presence of varying concentrations of 1′-Acetoxychavicol for five days and then analyzed for osteoclastogenesis by TRAP assay.
# (§2) RAW264.7 cells (1×10^4 cells) were incubated with MDA-MB-468 cells (1×10^3 cells) or with MCF-7 cells (1×10^3 cells) in the presence of varying concentrations of guggulsterone for five days and then analyzed for osteoclastogenesis by TRAP assay.
# (§3) The ability of tumor cells to induce osteoclastogenesis was also investigated in this study. Cells from head and neck squamous cell carcinoma and breast adenocarcinoma were used for this purpose. Briefly, RAW264.7 cells were incubated with different numbers of cells of head and neck squamous cell carcinoma (HN5, Fadu) or breast adenocarcinoma (MDA-MB-468, MCF-7) and then analyzed for osteoclastogenesis by TRAP assay.
# [2] = system: RAW264.7 cells incubated with MCF-7 cells; experiment: MCF-7 breast adenocarcinoma cells-induced osteoclastogenesis (TRAP assay); assay type: cell-based, mouse; details: five days
# Experimental: as §1, §2, §3
# phospho-IκBα = experiment: RANKL-induced IκBα phosphorylation by Western blotting in RAW 264.7 cells; assay type: cell-based, mouse; details: for RANKL-induced phosphorylation of IκBα: RANKL 10 nM
# Experimental: (§4) RAW264.7 cells (1×10^6 cells) were incubated with 1′-Acetoxychavicol (50 μM) and RANKL (10 nM) for different times. The samples were then analyzed for IκBα by western blot. […] RAW264.7 cells (1×10^6 cells) were incubated with different combinations of 1′-Acetoxychavicol (50 μM), RANKL (10 nM), acetyl-leucyl-leucyl-norleucinal (ALLN, 50 μg/ml) for 25 min. The samples were analyzed for phosphorylated IκBα by western blot.
# (§5) Thirty to fifty micrograms of cytoplasmic protein extracts were resolved on 10% SDS-PAGE gel. After electrophoresis, the proteins were electrotransferred to a nitrocellulose membrane, blocked with 5% nonfat milk, and probed with antibodies against either IκBα, phospho-IκBα, IKKα, IKKβ, or β-actin (1:3000) for 1 h. Thereafter, the blot was washed, exposed to HRP-conjugated secondary antibodies for 1 h, and finally detected by chemiluminescence (ECL, Amersham Pharmacia Biotech, Arlington Heights, Ill.).
# IκBα = experiment: RANKL-induced IκBα degradation by Western blotting in RAW 264.7 cells; assay type: cell-based, mouse
# Experimental: as §4, §5
# NF-κB = experiment: RANKL-induced NF-κB activation by EMSA in RAW 264.7 cells; assay type: cell-based, mouse
# Experimental: (§6) RAW264.7 cells (1×10^6 cells) were incubated with variable concentrations of guggulsterone for 4 h followed by treatment of the cells with RANKL (10 nM) for 25 min. The samples were then analyzed for NF-κB by EMSA. […] RAW264.7 cells (5×10^6 cells) were incubated with guggulsterone (50 μM) for 4 h followed by treatment of the cells with RANKL (10 nM) for different times. The samples were then analyzed for IKK by immune complex kinase assay.
# RAW264.7 cells (1×10^6 cells) were incubated with 1′-Acetoxychavicol (50 μM) and RANKL (10 nm) for different times. The samples were then analyzed for NF-κB by EMSA. […] RAW264.7 cells (1×10^6 cells) were incubated with variable concentrations of 1′-Acetoxychavicol and RANKL (10 nM) for 25 min. The samples were then analyzed for NF-κB by EMSA.
# Nuclear extracts were prepared as described earlier (Bharti et al., 2003). Briefly, 2×10^6 RAW264.7 cells were washed with cold PBS, scraped, and suspended in 0.4 ml of hypotonic lysis buffer containing protease inhibitors for 30 min. The cells were then lysed with 12.5 μl of 10% Nonidet P-40. The homogenate was centrifuged, and supernatant containing the cytoplasmic extracts was stored frozen at −80° C. The nuclear pellet was re-suspended in 25 μl ice-cold nuclear extraction buffer. After 30 min of intermittent mixing, the extract was centrifuged, and supernatants containing nuclear extracts were secured. The protein content was measured by the Bradford method. If the extracts were not used immediately, they were stored at −80° C.
# NF-κB activation was analyzed by electrophoretic mobility gel shift assay as described (Chaturvedi et al., 1994). […] The radioactive bands from the dried gels were visualized and quantitated by the Phosphorlmager (Molecular Dynamics, Sunnyvale, Calif.) using ImageQuant software.
# RAW 264.7 cells = experiment: Osteoclast differentiation assay (RANKL-induced, TRAP staining); assay type: cell-based, mouse
# Experimental: Cells were cultured for 5 days after RANKL treatment and stained for TRAP expression. […] Values indicate mean of total osteoclasts in triplicate cultures (error bar indicates s.d.).
# RAW264.7 cells (1×10^4 cells) were incubated with guggulsterone (5 μM) and RANKL (5 nM) for different days. The samples were then analyzed for osteoclastogenesis by TRAP assay. […]
# RAW264.7 cells were cultured in 24-well dishes at a density of 1×10^4 cells per well and were allowed to adhere overnight. Medium was then replaced and the cells were treated with 100 ng/ml (˜5 nM) RANKL. At day 5, cultures were stained for TRAP expression as described (Shevde et al., 2000) using an acid phosphatase kit, and the total number of TRAP-positive multinucleated osteoclasts (>3 nuclei) per well were counted.
# IKKα = IKKα protein expression by Western blotting; assay type: cell-based, mouse; details: curcumin 50 μM; FIG. 2C middle/lower panel
# Experimental: as §5
# (§7) The IκB kinase assay was performed by a modified method as described earlier (Manna et al., 2000). Briefly, 200 μg cytoplasmic extracts were immunoprecipitated with 1 μg of anti-IKKα and anti-IKKβ antibodies each, and the immune complexes so formed were precipitated with 0.01 ml of protein A/G-Sepharose beads for 2 hours. The beads were washed first with lysis buffer and then with the kinase assay buffer (50 mM HEPES pH 7.4, 20 mM MgCl2, and 2 mM DTT). The immune complex was then assayed for kinase activity usinig kinase assay buffer containing 20 μCi [γ-^32P] ATP, 10 μM unlabeled ATP, and 2 μg/sample glutathione S-transferase-IκBα (amino acids 1-54). After incubation at 30° C. for 30 min, the mixture was boiled with 6×SDS sample buffer to stop the reaction. […] The radioactive bands of the dried gel were visualized and quantitated by Phosphorlmager. […]
# IκB kinase (IKK) = biological target: T1, IκB kinase (IKK) (Mus musculus, UniProt O88351+Q60680); experiment: IκB kinase (immune complex kinase) assay on extracts of treated RAW 264.7 cells; assay type: cell-based
# T1 construct: 200 μg cytoplasmic extracts were immunoprecipitated with 1 μg of anti-IKKα and anti-IKKβ antibodies each; endogenous in cells; host or cells: RAW 264.7 (mouse macrophage cell line), cytoplasmic extracts, immunoprecipitated with anti-IKKα and anti-IKKβ
# Experimental: as §6
# IKKβ = IKKβ protein expression by Western blotting; assay type: cell-based, mouse; details: curcumin 50 μM; FIG. 2C middle/lower panel
# Experimental: as §5, §7
# [3] = curcumin 10 μM, RANKL 5 nM, 5 days, FIG. 4
# T1 sequence (Q60680 whole entry): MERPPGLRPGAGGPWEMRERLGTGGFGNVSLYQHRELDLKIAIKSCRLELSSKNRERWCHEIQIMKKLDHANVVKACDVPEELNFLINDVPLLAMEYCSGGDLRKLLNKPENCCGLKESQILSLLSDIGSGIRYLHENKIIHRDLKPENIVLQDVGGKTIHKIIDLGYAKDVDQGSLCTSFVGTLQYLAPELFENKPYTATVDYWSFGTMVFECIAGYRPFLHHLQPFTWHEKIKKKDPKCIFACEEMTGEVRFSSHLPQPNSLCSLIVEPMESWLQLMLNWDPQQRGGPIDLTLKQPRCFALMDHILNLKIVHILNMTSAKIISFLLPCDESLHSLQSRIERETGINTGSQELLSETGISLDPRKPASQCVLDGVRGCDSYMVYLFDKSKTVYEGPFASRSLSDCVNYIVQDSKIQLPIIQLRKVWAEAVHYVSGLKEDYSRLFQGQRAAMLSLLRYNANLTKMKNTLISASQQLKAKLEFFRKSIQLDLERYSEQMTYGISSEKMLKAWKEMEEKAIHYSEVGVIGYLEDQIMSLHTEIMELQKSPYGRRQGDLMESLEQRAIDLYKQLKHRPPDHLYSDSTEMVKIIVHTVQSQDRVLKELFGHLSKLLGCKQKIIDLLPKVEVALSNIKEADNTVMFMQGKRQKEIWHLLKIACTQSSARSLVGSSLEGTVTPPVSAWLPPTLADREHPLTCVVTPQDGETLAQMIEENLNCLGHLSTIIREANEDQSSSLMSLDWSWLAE
# T1 sequence (O88351 whole entry): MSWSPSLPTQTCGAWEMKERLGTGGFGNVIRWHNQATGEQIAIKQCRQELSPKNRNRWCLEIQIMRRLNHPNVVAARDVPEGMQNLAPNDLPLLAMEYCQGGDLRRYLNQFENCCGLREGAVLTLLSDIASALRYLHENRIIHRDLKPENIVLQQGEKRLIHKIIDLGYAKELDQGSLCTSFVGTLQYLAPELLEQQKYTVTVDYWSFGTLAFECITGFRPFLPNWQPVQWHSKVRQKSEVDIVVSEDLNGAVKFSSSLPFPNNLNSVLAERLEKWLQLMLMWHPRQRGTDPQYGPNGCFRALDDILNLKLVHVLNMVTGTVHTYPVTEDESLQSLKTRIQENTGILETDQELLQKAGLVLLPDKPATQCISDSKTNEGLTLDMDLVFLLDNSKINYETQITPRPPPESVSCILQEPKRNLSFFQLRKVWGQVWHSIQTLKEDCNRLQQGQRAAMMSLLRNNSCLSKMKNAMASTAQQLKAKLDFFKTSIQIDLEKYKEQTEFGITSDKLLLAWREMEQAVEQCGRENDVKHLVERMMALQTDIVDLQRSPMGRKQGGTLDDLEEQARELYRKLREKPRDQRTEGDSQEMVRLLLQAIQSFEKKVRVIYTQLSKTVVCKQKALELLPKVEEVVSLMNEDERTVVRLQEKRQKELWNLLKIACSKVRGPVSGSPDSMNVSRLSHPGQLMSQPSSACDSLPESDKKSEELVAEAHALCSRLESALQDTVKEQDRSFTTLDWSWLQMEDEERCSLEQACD
# T1 sequence (O88522 whole entry partner): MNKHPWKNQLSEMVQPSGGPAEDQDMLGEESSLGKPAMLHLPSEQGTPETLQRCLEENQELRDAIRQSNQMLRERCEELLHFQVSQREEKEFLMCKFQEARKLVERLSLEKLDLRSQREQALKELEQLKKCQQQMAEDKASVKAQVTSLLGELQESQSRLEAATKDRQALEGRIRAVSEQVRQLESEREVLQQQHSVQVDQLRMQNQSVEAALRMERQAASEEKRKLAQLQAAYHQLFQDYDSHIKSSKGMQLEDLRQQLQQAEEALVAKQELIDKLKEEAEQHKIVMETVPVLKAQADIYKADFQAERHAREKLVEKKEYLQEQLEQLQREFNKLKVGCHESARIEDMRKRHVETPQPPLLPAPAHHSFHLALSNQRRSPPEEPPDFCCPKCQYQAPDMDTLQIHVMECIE
compound,measurement,setting,value
C=CC(OC(C)=O)c1ccc(O)cc1 (stereo not shown) [1′-Acetoxychavicol],"number of TRAP-positive cells, MDA-MB-468 co-incubation","[1]; varying concentrations of 1′-Acetoxychavicol, FIG. 15B",decreased as the concentration of 1′-Acetoxychavicol increased
same,MDA-MB-468 cells induced osteoclastogenesis,"[1]; varying concentrations of 1′-Acetoxychavicol, FIGS. 15A and 15B",suppressed
same,"number of TRAP-positive cells, MCF-7 co-incubation","[2]; varying concentrations of 1′-Acetoxychavicol, FIG. 15D",decreased as the concentration of 1′-Acetoxychavicol increased
same,MCF-7 cells induced osteoclastogenesis,"[2]; varying concentrations of 1′-Acetoxychavicol, FIGS. 15C and 15D",suppressed
same,RANKL-induced phosphorylation of IκBα,"phospho-IκBα; 1′-Acetoxychavicol 50 μM, ALLN 50 μg/ml, 25 min, FIG. 10B",suppressed
same,RANKL-induced IκBα level (degradation),"IκBα; 1′-Acetoxychavicol 50 μM and RANKL 10 nM for different times, FIG. 10A",no decrease in the RANKL-induced IκBα level
same,"RANKL-induced NF-κB activation (EMSA), time course","NF-κB; 1′-Acetoxychavicol 50 μM and RANKL 10 nM for different times, FIG. 9A",suppressed RANKL-induced NF-κB activation in time-dependent manner
same,concentration of 1′-Acetoxychavicol at which maximal inhibition of RANKL-induced NF-κB activation was observed,"NF-κB; RANKL 10 nM 25 min, FIG. 9B",50 µM
same,"RANKL-induced NF-κB activation (EMSA), dose dependence","NF-κB; variable concentrations of 1′-Acetoxychavicol and RANKL 10 nM for 25 min, FIG. 9B",suppressed RANKL-induced NF-κB activation in a dose-dependent manner
same,"RANKL-induced osteoclastogenesis (TRAP assay), incubated for 3 days","RAW 264.7 cells; 1′-Acetoxychavicol 0.5 μM and RANKL 5 nM, 3 days, FIG. 11A",able to suppress the RANKL-induced osteoclastogenesis
same,"RANKL-induced osteoclastogenesis (TRAP assay), incubated for longer than 3 days","RAW 264.7 cells; 1′-Acetoxychavicol 0.5 μM and RANKL 5 nM, longer time, FIG. 11A",osteoclasts were seen
same,"RANKL-induced osteoclastogenesis, time of addition of 1′-Acetoxychavicol","RAW 264.7 cells; RANKL 5 nM, 1′-Acetoxychavicol 0.5 μM added on different days, FIG. 12",suppressed RANKL-induced osteoclastogenesis only when added together with RANKL
same,number of RANKL-induced osteoclasts versus 1′-Acetoxychavicol concentration,"RAW 264.7 cells; different concentrations of 1′-Acetoxychavicol, RANKL 5 nM, FIG. 11B",decreased with increasing concentrations of 1′-Acetoxychavicol
"COc1cc(/C=C/C(=O)CC(=O)/C=C/c2ccc(O)c(OC)c2)ccc1O [curcumin, diferuloylmethane]",expression of IKKα,IKKα,did not alter the expression
same,RANKL-induced phosphorylation of IκBα,"phospho-IκBα; curcumin 50 μM 2 h pretreatment, FIG. 2B",eliminated the RANKL-induced phosphorylation
same,"phosphorylation of IκBα, curcumin alone","phospho-IκBα; curcumin alone, no RANKL, FIG. 2B",did not result in phosphorylation of IκBα
same,RANKL-induced IκBα level (degradation),"IκBα; curcumin 50 μM 2 h pretreatment, RANKL 10 nM, FIG. 2A",no decrease in the RANKL-induced IκBα level
same,RANKL-induced NF-κB activation (EMSA),"NF-κB; curcumin 50 μM for 2 hours, then RANKL 10 nM, FIG. 1A",completely abrogated the RANKL-induced NF-κB activation
same,concentration of curcumin at which complete inhibition of RANKL-induced NF-κB activation was observed,"NF-κB; curcumin 2 h, then RANKL 10 nM, FIG. 1B",50 µM
same,dose dependence of inhibition of RANKL-induced NF-κB,"NF-κB; indicated concentrations of curcumin 2 h, then RANKL 10 nM, FIG. 1B",increased as the dose of curcumin was increased
same,RANKL-induced IKK activity (phosphorylation of GST-IκBα substrate),"IκB kinase (IKK); curcumin 50 μM 2 h pretreatment, RANKL 10 nM, FIG. 2C upper panel",could not phosphorylate guggulsterone T-IκBα upon RANKL treatment
same,number of RANKL-induced osteoclasts versus curcumin concentration,"RAW 264.7 cells; RANKL 5 nM, different concentrations of curcumin, 5 days, FIG. 3B",number of osteoclasts decreased with increasing concentration of curcumin
same,"RANKL-induced osteoclastogenesis, curcumin added together with RANKL","RAW 264.7 cells; curcumin 10 μM added at the same time as RANKL 5 nM, 5 days",suppressed osteoclastogenesis maximally
same,"RANKL-induced osteoclastogenesis, curcumin added 24 hours after RANKL",RAW 264.7 cells; [3],inhibited osteoclastogenesis
same,"RANKL-induced osteoclastogenesis, curcumin added 2 days after RANKL",RAW 264.7 cells; [3],inhibitory effect decreased significantly
same,expression of IKKβ,IKKβ,did not alter the expression
C/C=C1\C(=O)C[C@H]2[C@@H]3CCC4=CC(=O)CC[C@]4(C)[C@H]3CC[C@]12C [guggulsterone],"number of TRAP-positive cells, MDA-MB-468 co-incubation","[1]; varying concentrations of guggulsterone, FIG. 16B",decreased as the concentration of guggulsterone increased
same,MDA-MB-468 cells induced osteoclastogenesis,"[1]; varying concentrations of guggulsterone, FIGS. 16A and 16B",suppressed
same,"number of TRAP-positive cells, MCF-7 co-incubation","[2]; varying concentrations of guggulsterone, FIG. 16D",decreased as the concentration of guggulsterone increased
same,MCF-7 cells induced osteoclastogenesis,"[2]; varying concentrations of guggulsterone, FIGS. 16C and 16D",suppressed
same,concentration of guggulsterone at which maximal inhibition of RANKL-induced NF-κB activation was observed,"NF-κB; guggulsterone 4 h, then RANKL 10 nM 25 min, FIG. 6A",50 µM
same,"NF-κB activation, guggulsterone alone","NF-κB; guggulsterone in the absence of RANKL, FIG. 6A",no NF-κB activation
same,dose dependence of suppression of RANKL-induced NF-κB activation (EMSA),"NF-κB; variable concentrations of guggulsterone 4 h, then RANKL 10 nM 25 min, FIG. 6A",suppression of this activation increased as the concentration of guggulsterone increased
same,RANKL-induced IKK activity (immune complex kinase assay),"IκB kinase (IKK); guggulsterone 50 μM 4 h pretreatment, RANKL 10 nM different times, FIG. 6B",absence of IKK activity upon RANKL treatment
same,"RANKL-induced osteoclastogenesis, time of addition of guggulsterone","RAW 264.7 cells; RANKL 5 nM, guggulsterone 5 μM added on different days, FIG. 8",suppressed RANKL-induced osteoclastogenesis only when added together with RANKL
same,RANKL-induced osteoclastogenesis (TRAP assay),"RAW 264.7 cells; guggulsterone 5 μM and RANKL 5 nM for different days, FIG. 7A",suppressed RANKL-induced osteoclastogenesis
same,number of RANKL-induced TRAP positive cells,"RAW 264.7 cells; guggulsterone, RANKL 5 nM, FIG. 7B",decreased with increasing concentration of guggulsterone
